In the test the target is T1, RORc ligand binding domain (Homo sapiens, UniProt P51449).
T1 sequence (P51449 269-508 limits assumed): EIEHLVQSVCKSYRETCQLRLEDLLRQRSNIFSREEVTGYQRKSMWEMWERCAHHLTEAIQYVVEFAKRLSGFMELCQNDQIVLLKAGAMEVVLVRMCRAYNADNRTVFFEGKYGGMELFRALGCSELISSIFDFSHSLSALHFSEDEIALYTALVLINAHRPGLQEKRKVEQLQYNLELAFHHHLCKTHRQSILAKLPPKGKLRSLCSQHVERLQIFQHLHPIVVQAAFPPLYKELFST
The test is described as follows: In Vitro RORc Ligand Binding Assay. The conditions noted are these: RORc IC50, radioligand 25-[3H]hydroxycholesterol 6 nM; 0.6 ug/mL RORc receptor; 3 h at 25° C.

The values below come from US10487068B2, “Pyridazine derivatives as RORc modulators” (Genentech, Inc., priority 2015, dated 2019).

Molecule `CC1(C)[C@H]2CC[C@]1(c1ccnc(NCc3n[nH]c(=O)[nH]3)n1)c1nnc(-c3c(F)cccc3F)cc12` [Example 155] registered an IC50 of 65.8 nM.
On to `CC(C)S(=O)(=O)Nc1cccc([C@@]23CC[C@@H](c4cc(-c5c(F)cccc5F)nnc42)C3(C)C)n1` [Example 156, N-(6-((5R,8S)-3-(2,6-difluorophenyl)-9,9-dimethyl-5,6,7,8-tetrahydro-5,8-methanocinnolin-8-yl)pyridin-2-yl)propane-2-sulfonamide], for which the IC50 came out at 30.6 nM.
The value for `CC1(C)[C@H]2CC[C@]1(c1cccc(N3CCNC3=O)n1)c1nnc(-c3c(F)cccc3F)cc12` [Example 157, 1-(6-((5R,8S)-3-(2,6-difluorophenyl)-9,9-dimethyl-5,6,7,8-tetrahydro-5,8-methanocinnolin-8-yl)pyridin-2-yl)imidazolidin-2-one] was 5.1 nM; that for `CC1(C)[C@H]2CC[C@]1(c1cccc(N3CCN(CCO)C3=O)n1)c1nnc(-c3c(F)cccc3F)cc12` [Example 158, 1-(6-((5R,8S)-3-(2,6-difluorophenyl)-9,9-dimethyl-5,6,7,8-tetrahydro-5,8-methanocinnolin-8-yl)pyridin-2-yl)-3-(2-hydroxyethyl)imidazolidin-2-one] was 26.1 nM.
With `CC1(C)[C@H]2CC[C@]1(c1cnc(C#N)c(C#N)n1)c1nnc(-c3c(F)cccc3F)cc12` [Example 159, 5-((5R,8S)-3-(2,6-difluorophenyl)-9,9-dimethyl-5,6,7,8-tetrahydro-5,8-methanocinnolin-8-yl)pyrazine-2,3-dicarbonitrile], the IC50 was 548 nM.
For `COC(=O)c1nccc([C@@]23CC[C@@H](c4cc(-c5c(F)cccc5Cl)nnc42)C3(C)C)n1` [Example 160] the value was 13.1 nM; for `CC1(C)[C@H]2CC[C@]1(c1ccnc(C(=O)NCCO)n1)c1nnc(-c3c(F)cccc3Cl)cc12` [Example 161], 44 nM.
The value for `CC1(C)[C@H]2CC[C@]1(c1cccc(S(=O)(=O)NCCO)n1)c1nnc(-c3c(F)cccc3F)cc12` [Example 162, 6-((5R,8S)-3-(2,6-difluorophenyl)-9,9-dimethyl-5,6,7,8-tetrahydro-5,8-methanocinnolin-8-yl)-N-(2-hydroxyethyl)pyridine-2-sulfonamide] was 23 nM; that for `CC1(C)[C@H]2CC[C@]1(c1ccnc(NCc3nnc[nH]3)n1)c1nnc(-c3c(F)cccc3F)cc12` [Example 163] was 19.2 nM.
For `CC1(C)[C@H]2CC[C@]1(c1cccc(NS(=O)(=O)C3COC3)n1)c1nnc(-c3c(F)cccc3F)cc12` [Example 164, N-(6-((5R,8S)-3-(2,6-difluorophenyl)-9,9-dimethyl-5,6,7,8-tetrahydro-5,8-methanocinnolin-8-yl)pyridin-2-yl)oxetane-3-sulfonamide] the value was 32.4 nM; for `CC1(C)[C@H]2CC[C@]1(c1cc(C#N)ncc1Br)c1nnc(-c3c(F)cccc3F)cc12` [Example 165, 5-bromo-4-((5R,8S)-3-(2,6-difluorophenyl)-9,9-dimethyl-5,6,7,8-tetrahydro-5,8-methanocinnolin-8-yl)picolinonitrile], 25.1 nM.
Regarding `CC1(C)[C@H]2CC[C@]1(c1nc(C#N)ccc1Br)c1nnc(-c3c(F)cccc3F)cc12` [Example 166, 5-bromo-6-((5R,8S)-3-(2,6-difluorophenyl)-9,9-dimethyl-5,6,7,8-tetrahydro-5,8-methanocinnolin-8-yl)picolinonitrile], the IC50 stood at 3.9 nM.
In turn, `Cc1nc(C#N)c(C#N)nc1[C@@]12CC[C@@H](c3cc(-c4c(F)cccc4F)nnc31)C2(C)C` [Example 167, 5-((5R,8S)-3-(2,6-difluorophenyl)-9,9-dimethyl-5,6,7,8-tetrahydro-5,8-methanocinnolin-8-yl)-6-methylpyrazine-2,3-dicarbonitrile] registered an IC50 of 548 nM.
Molecule `CC1(C)[C@H]2CC[C@]1(c1nc(C(F)(F)F)ncc1Br)c1nnc(-c3c(F)cccc3F)cc12` [Example 168] gave an IC50 of 20.1 nM.
For `COC(=O)c1cnc(C)c([C@@]23CC[C@@H](c4cc(-c5c(F)cccc5F)nnc42)C3(C)C)n1` [Example 169, methyl 6-((5R,8S)-3-(2,6-difluorophenyl)-9,9-dimethyl-5,6,7,8-tetrahydro-5,8-methanocinnolin-8-yl)-5-methylpyrazine-2-carboxylate] the value was 10 nM; for `Cc1ncc(C(=O)NCCO)nc1[C@@]12CC[C@@H](c3cc(-c4c(F)cccc4F)nnc31)C2(C)C` [Example 170, 6-((5R,8S)-3-(2,6-difluorophenyl)-9,9-dimethyl-5,6,7,8-tetrahydro-5,8-methanocinnolin-8-yl)-N-(2-hydroxyethyl)-5-methylpyrazine-2-carboxamide], 119 nM; for `Cc1nnc(-c2ccnc([C@@]34CC[C@@H](c5cc(-c6c(F)cccc6F)nnc53)C4(C)C)n2)[nH]1` [Example 171, (5R,8R)-3-(2,6-difluorophenyl)-9,9-dimethyl-8-(4-(5-methyl-4H-1,2,4-triazol-3-yl)pyrimidin-2-yl)-5,6,7,8-tetrahydro-5,8-methanocinnoline], 36.6 nM.
For `CC1(C)[C@H]2CC[C@]1(c1ccc(C#N)nc1)c1nnc(-c3c(F)cccc3Cl)cc12` [Example 172, 5-((5R,8S)-3-(2-chloro-6-fluorophenyl)-9,9-dimethyl-5,6,7,8-tetrahydro-5,8-methanocinnolin-8-yl)picolinonitrile], the IC50 is 159 nM.
The value for `CC1(C)[C@H]2CC[C@]1(c1cccc(C#N)n1)c1nnc(-c3c(F)cccc3Cl)cc12` [Example 173, 6-((5R,8S)-3-(2-chloro-6-fluorophenyl)-9,9-dimethyl-5,6,7,8-tetrahydro-5,8-methanocinnolin-8-yl)picolinonitrile] was 4.5 nM.
For `CC1(C)[C@H]2CC[C@]1(c1cncc(-c3c[nH]c(=O)[nH]3)n1)c1nnc(-c3c(F)cccc3F)cc12` [Example 174, 4-(6-((5R,8S)-3-(2,6-difluorophenyl)-9,9-dimethyl-5,6,7,8-tetrahydro-5,8-methanocinnolin-8-yl)pyrazin-2-yl)-1H-imidazol-2(3H)-one] the value was 8.5 nM; for `Cc1ncc(-c2ccnc([C@@]34CC[C@@H](c5cc(-c6c(F)cccc6F)nnc53)C4(C)C)c2)o1` [Example 175], 13.4 nM; for `COC(=O)c1nc(C)cc([C@@]23CC[C@@H](c4cc(-c5c(F)cccc5F)nnc42)C3(C)C)n1` [Example 176], 12.9 nM.
For `CC1(C)[C@H]2CC[C@]1(c1cc(N)ncc1Cl)c1nnc(-c3c(F)cccc3F)cc12` [Example 177, 5-chloro-4-((5R,8S)-3-(2,6-difluorophenyl)-9,9-dimethyl-5,6,7,8-tetrahydro-5,8-methanocinnolin-8-yl)pyridin-2-amine] the value was 24.4 nM; for `Cc1nnc(-c2nccc([C@@]34CC[C@@H](c5cc(-c6c(F)cccc6F)nnc53)C4(C)C)n2)[nH]1` [Example 178], 27.8 nM.
In the case of `CC1(C)[C@H]2CC[C@]1(c1cccc(-c3n[nH]c(=O)[nH]3)n1)c1nnc(-c3c(F)cccc3F)cc12` [Example 179, 3-(6-((5R,8S)-3-(2,6-difluorophenyl)-9,9-dimethyl-5,6,7,8-tetrahydro-5,8-methanocinnolin-8-yl)pyridin-2-yl)-1H-1,2,4-triazol-5(4H)-one], the IC50 amounted to 15 nM.
For `CC1(C)[C@H]2CC[C@]1(c1ccnc(-c3nnc(CO)[nH]3)n1)c1nnc(-c3c(F)cccc3F)cc12` [Example 180] the value was 28 nM; for `CC1(C)[C@H]2CC[C@]1(c1ccnc(-n3ccnc3)n1)c1nnc(-c3c(F)cccc3F)cc12` [Example 181], 3.7 nM; for `CC1(C)[C@H]2CC[C@]1(c1ccnc(-n3cncn3)n1)c1nnc(-c3c(F)cccc3F)cc12` [Example 182], 4.2 nM.
Consider `CNS(=O)(=O)c1nccc([C@@]23CC[C@@H](c4cc(-c5c(F)cccc5F)nnc42)C3(C)C)n1` [Example 183], for which the IC50 was determined as 15.6 nM.
Take `CC1(C)[C@H]2CC[C@]1(c1cncc(-c3cnco3)n1)c1nnc(-c3c(F)cccc3F)cc12` [Example 184, 5-(6-((5R,8S)-3-(2,6-difluorophenyl)-9,9-dimethyl-5,6,7,8-tetrahydro-5,8-methanocinnolin-8-yl)pyrazin-2-yl)oxazole]: the IC50 came out at 3.3 nM.
For `CC1(C)[C@H]2CC[C@]1(c1cncc(=O)[nH]1)c1nnc(-c3c(F)cccc3F)cc12` [Example 185, 6-((5R,8S)-3-(2,6-difluorophenyl)-9,9-dimethyl-5,6,7,8-tetrahydro-5,8-methanocinnolin-8-yl)pyrazin-2(1H)-one] the value was 30.5 nM.
The value for `COC(=O)c1ncc(Br)c([C@@]23CC[C@@H](c4cc(-c5c(F)cccc5F)nnc42)C3(C)C)n1` [Example 187] was 26.4 nM; that for `CC1(C)[C@H]2CC[C@]1(c1ccnc(-n3ccnn3)n1)c1nnc(-c3c(F)cccc3F)cc12` [Example 188] was 7.5 nM.
`CC1(C)[C@H]2CC[C@]1(c1ccnc(-n3nccn3)n1)c1nnc(-c3c(F)cccc3F)cc12` [Example 189] yielded an IC50 of 14.8 nM.
For the molecule `CC1(C)[C@H]2CC[C@]1(c1ccnc(S(=O)(=O)NCCO)n1)c1nnc(-c3c(F)cccc3F)cc12` [Example 190], the concentration for half-maximal inhibition (IC50) is 13.6 nM.
For `CC1(C)[C@H]2CC[C@]1(c1cccc(S(=O)(=O)NCC3(O)COC3)n1)c1nnc(-c3c(F)cccc3F)cc12` [Example 191, 6-((5R,8S)-3-(2,6-difluorophenyl)-9,9-dimethyl-5,6,7,8-tetrahydro-5,8-methanocinnolin-8-yl)-N-((3-hydroxyoxetan-3-yl)methyl)pyridine-2-sulfonamide] the value was 24.6 nM.

By IC50 is commonly meant the concentration needed to halve the response being measured. Lower therefore signals greater potency in that assay.
